Tests used:
[1] = system: fibroblasts (PHF) co-cultured with tumor cells of human endometrial carcinoma (AN3-CA); assay: Marker expression (IHC) in PHF co-cultured with AN3-CA tumor cells; type: cell-based; conditions: co-culture with AN3-CA; SP 1 μM + antagonist 1 μM; 48 h;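 further: cultured in fresh healthy-donor blood plasma with added antibiotic-antimycotic, run in six replicates, values give percent of fibroblasts positive for each marker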
Method: (§1) All cultures were maintained 48 hours, following which the same cells were included in paraffin blocks for subsequent analysis of the expression of different markers by immunohistochemistry (see Example 1). […] All experiments were carried out sixfold. Analyzed markers in fibroblast cells (stromal cells) were: TGF-α, TGF-β1, TGF-β2, TGF-β3, SPARC, MMP-3, MMP-7, MMP-9, MMP-11, MMP-13 and MMP-14.

[2] = system: fibroblasts (PHF) cells co-cultured with human T lymphoma tumor (DERL-7); assay: Marker expression (IHC) in PHF co-cultured with DERL-7 tumor cells; type: cell-based; conditions: PHF co-cultured with DERL-7 + SP + NK1 antagonist
[3] = system: fibroblasts of tumors produced by lung carcinoma non small cell human (HCC-44) cells; assay: Marker expression (IHC) in fibroblasts of tumor or peritumoral area, mouse model, HCC-44; type: in vivo; conditions: HCC-44 tumors in mice, 30 mg/kg/day oral, 7 days
Method: Subsequently, the expression in fibroblasts tumoral and peritumoral area of molecular markers associated with progression and maintenance of tumors: TGF-α, TGF-β1, TGF-β2, TGF-β3, MMP-7, MMP-11, MMP-14 were analyzed by immunohistochemistry.
Were injected with 2×10^7 cells tumors (corresponding, in each case to each of the tumor types as specified in Table 9) in 200 of PBS subcutaneously μl. […] Mice were randomized into two groups when the tumors reached a volume of 75 mm^3 One group was treated with non-peptide receptor antagonists NK1 and the other with placebo 200μ1. […] Tumors and samples of non-neoplastic stromal areas remote from the tumor were halved, formalin fixed (4%) and then were included in paraffin blocks for analysis by immunohistochemistry.
The expression on fibroblast cells obtained in the animal model was analyzed by immunohistochemistry, of the above markers: TGF-α, TGF-β1, TGF-β2, TGF-β3, MMP-7, MMP-1 1, MMP-14MP-14. […] This process was realized in mice treated with non-peptide antagonists of NK1 receptor and in untreated animals (control).

[4] = system: co-cultures of tumor cells-endothelial cells (C-12210); assay: Inhibition/survival in co-cultures of primary human tumor cells and endothelial cells; type: cell-based; conditions: survival in reference to control, SP 1 μM, Aprepitant 1 μM
Method: To check that the interaction of primary tumor cells extracted directly from human with human vascular endothelial cells, promotes the survival of both cell types, co-cultures were performed microvascular endothelial cells from juvenile foreskins (PromoCell GmbH, Sickingenstraβe 63/65, D-69126 Heidelberg, Germany; reference C-12210) with tumor cells obtained directly from primary human tumors.
A total of 6 wells containing tumor cells were used as control for survival. Another 6 wells containing tumor cells were cultured with addition of endothelial cells.
Subsequently, cells were embedded in paraffin for analysis by immunohistochemistry. In order to identify the different cell types and quantity of them [They were labelled with primary antibodies specific for human endothelial cells (anti-CD31), carcinoma cells (Anti-Cytokeratins Spread Spectrum), glioma (Anti-glial fibrillary acidic protein), fibrosarcoma and malignant fibrous histiocytoma (Anti-Smooth Muscle Actin), Ewing sarcoma (Anti-CD99), Melanoma (Anti-HMB45), leukemias and lymphomas (Anti-Common Antigen Leucitario) and myeloma (anti CD 138). All antibodies are distributed by Dako and were used at the same concentration which is supplied (supplied pre-diluted—“ready to use”).

[5] = system: human primary macrophages (PHM); assay: Marker expression (immunohistochemistry) in human primary macrophages with SP alone or with NK1 antagonists; type: cell-based; conditions: SP 1 μM + antagonist 1 μM; 48 h
Method: In this sense the next step was to analyze the effect exerted by the treatment with non-peptide NK1 antagonists in human primary macrophages (PHM) obtained and purified from pleural effusion samples obtained from men with chronic age range between 45 and 55 years. Briefly, the pleural fluid from chronic (rich in macrophages) was centrifuged.
After 48 hours of culture, cells were harvested and cellular paraffin blocks were constructed for immunohistochemical analysis (see Example 1). To analyze the expression of markers EGF, MMP-9, VEGF and IL-8 antibodies were used as follows: EGF (rabbit monoclonal antibody, anti-EGF; 07-1432. Merck-Millipore), MMP-9 (polyclonal rabbit anti-MMP-9: SAB4501896, Sigma-Aldrich), VEGF (mouse monoclonal anti-VEGF, GF25-100UG, Merck-Millipore) and TNF-α (mouse monoclonal anti-TNF-α, number MAB 1021 catalogue, obtained from Merck-Millipore). All of these antibodies were used at a concentration of 1/1000. System for labelling with a secondary antibody specific for the primary antibodies obtained from rabbit or mouse was used, as was necessary in each case, both the Envision (Dako). All experiments were carried out sixfold.

[6] = system: fibroblasts (PHF) co-cultured with tumor cells of human colon adenocarcinoma (SW-403); assay: Marker expression (IHC) in PHF co-cultured with SW-403 tumor cells; type: cell-based; conditions: co-culture with SW-403; SP 1 μM + antagonist 1 μM; 48 h
Method: All cultures were maintained 48 hours, following which the same cells were included in paraffin blocks for subsequent analysis of the expression of different markers by immunohistochemistry (see Example 1). The primary antibodies used to perform immunohistochemical assays and their concentration are detailed in Example 2. All experiments were carried out sixfold. Analyzed markers in fibroblast cells (stromal cells) were: TGF-α, TGF-β1, TGF-β2, TGF-β3, SPARC, MMP-3, MMP-7, MMP-9, MMP-11, MMP-13 and MMP-14.

[7] = system: fibroblasts (PHF) co-cultured with human glioma tumor cells (GAMG); assay: Marker expression (IHC) in PHF co-cultured with GAMG tumor cells; type: cell-based; conditions: co-culture with GAMG; SP 1 μM + antagonist 1 μM; 48 h;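 further: percentage of PHF fibroblasts positive for each marker, cultured in fresh plasma from a healthy donor, six replicates, with fibroblasts cultured alone as reference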
Method: as §1

[8] = system: fibroblasts (PHF) co-cultured with tumor cells of human Edwing sarcoma (MHH-ES-1); assay: Marker expression (IHC) in PHF co-cultured with MHH-ES-1 tumor cells; type: cell-based; conditions: PHF co-cultured with MHH-ES-1 + SP + NK1 antagonist
Method: as §1

[9] = Carcinoma of lung, (Small cell carcinoma in Table 36)
[10] = Carcinoma of lung, Non Small Cell Carcinoma in Table 36
[11] = Carcinoma of thyroid, (Follicular Carcinoma in Table 36)
[12] = Carcinoma of thyroid, (Papillary Carcinoma in Table 36)

Structure (SMILES): C[C@@H](O[C@H]1OCCN(Cc2n[nH]c(=O)[nH]2)[C@H]1c1ccc(F)cc1)c1cc(C(F)(F)F)cc(C(F)(F)F)c1 [Aprepitant]
- PHF cells expressing MMP-3 [1]: 0%
- PHF cells expressing MMP-7 [1]: 0%
- PHF cells expressing MMP-9 [1]: 0%
- PHF cells expressing MMP-11 [1]: 0%
- PHF cells expressing MMP-13 [1]: 0%
- PHF cells expressing MMP-14 [1]: 0%
- PHF cells expressing SPARC [1]: 0%
- PHF cells expressing TGF-α [1]: 0%
- PHF cells expressing TGF-β1 [1]: 0%
- PHF cells expressing TGF-β2 [1]: 0%
- PHF cells expressing TGF-β3 [1]: 0%
- cells expressing MMP-3 [2]: 0%
- cells expressing MMP-7 [2]: 0%
- cells expressing MMP-9 [2]: 0%
- cells expressing MMP-11 [2]: 0%
- cells expressing MMP-13 [2]: 0%
- cells expressing MMP-14 [2]: 0%
- cells expressing SPARC [2]: 0%
- cells expressing TGF-α [2]: 0%
- cells expressing TGF-β1 [2]: 0%
- cells expressing TGF-β2 [2]: 0%
- cells expressing TGF-β3 [2]: 0%
- fibroblasts expressing MMP-7 [3]: 0%
- fibroblasts expressing MMP-11 [3]: 0%
- fibroblasts expressing MMP-14 [3]: 0%
- fibroblasts expressing TGF-α [3]: 0%
- fibroblasts expressing TGF-β 1 [3]: 0%
- fibroblasts expressing TGF-β 2 [3]: 0%
- fibroblasts expressing TGF-β 3 [3]: 0%
- Endothelial cells co-cultured with tumor cells + SP + Aprepitant ([4]; Carcinoma of Colon): 57 ± 3%
- Tumor cells co-cultured with endothelial cells + SP + Aprepitant ([4]; Carcinoma of Colon): 61 ± 3%
- Endothelial cells co-cultured with tumor cells + SP + Aprepitant ([4]; Carcinoma of Pancreas): 52 ± 4%
- Tumor cells co-cultured with endothelial cells + SP + Aprepitant ([4]; Carcinoma of Pancreas): 46 ± 6%
- Endothelial cells co-cultured with tumor cells + SP + Aprepitant ([4]; Carcinoma of breast): 56 ± 6%
- Tumor cells co-cultured with endothelial cells + SP + Aprepitant ([4]; Carcinoma of breast): 56 ± 3%
- Endothelial cells co-cultured with tumor cells + SP + Aprepitant ([4]; Carcinoma of cervix): 45 ± 3%
- Tumor cells co-cultured with endothelial cells + SP + Aprepitant ([4]; Carcinoma of cervix): 46 ± 3%
- Endothelial cells co-cultured with tumor cells + SP + Aprepitant ([4]; Carcinoma of endometrial): 57 ± 4%
- Tumor cells co-cultured with endothelial cells + SP + Aprepitant ([4]; Carcinoma of endometrial): 49 ± 3%
- Endothelial cells co-cultured with tumor cells + SP + Aprepitant [4, 9]: 46 ± 7%
- Tumor cells co-cultured with endothelial cells + SP + Aprepitant [4, 9]: 63 ± 3%
- Endothelial cells co-cultured with tumor cells + SP + Aprepitant [4, 10]: 43 ± 4%
- Tumor cells co-cultured with endothelial cells + SP + Aprepitant [4, 10]: 65 ± 4%
- Endothelial cells co-cultured with tumor cells + SP + Aprepitant ([4]; Carcinoma of ovarian): 49 ± 5%
- Tumor cells co-cultured with endothelial cells + SP + Aprepitant ([4]; Carcinoma of ovarian): 54 ± 4%
- Endothelial cells co-cultured with tumor cells + SP + Aprepitant ([4]; Carcinoma of prostate): 54 ± 4%
- Tumor cells co-cultured with endothelial cells + SP + Aprepitant ([4]; Carcinoma of prostate): 47 ± 5%
- Endothelial cells co-cultured with tumor cells + SP + Aprepitant ([4]; Carcinoma of stomach): 65 ± 2%
- Tumor cells co-cultured with endothelial cells + SP + Aprepitant ([4]; Carcinoma of stomach): 54 ± 5%
- Endothelial cells co-cultured with tumor cells + SP + Aprepitant [4, 11]: 45 ± 3%
- Tumor cells co-cultured with endothelial cells + SP + Aprepitant [4, 11]: 46 ± 6%
- Endothelial cells co-cultured with tumor cells + SP + Aprepitant [4, 12]: 56 ± 6%
- Tumor cells co-cultured with endothelial cells + SP + Aprepitant [4, 12]: 56 ± 4%
- Endothelial cells co-cultured with tumor cells + SP + Aprepitant ([4]; Fibrosarcoma): 45 ± 6%
- Tumor cells co-cultured with endothelial cells + SP + Aprepitant ([4]; Fibrosarcoma): 55 ± 6%
- Endothelial cells co-cultured with tumor cells + SP + Aprepitant ([4]; Glioma): 56 ± 5%
- Tumor cells co-cultured with endothelial cells + SP + Aprepitant ([4]; Glioma): 49 ± 4%
- Endothelial cells co-cultured with tumor cells + SP + Aprepitant ([4]; Hodgkin's Lymphoma): 48 ± 4%
- Tumor cells co-cultured with endothelial cells + SP + Aprepitant ([4]; Hodgkin's Lymphoma): 74 ± 6%
- Endothelial cells co-cultured with tumor cells + SP + Aprepitant ([4]; Leukemia B): 46 ± 5%
- Tumor cells co-cultured with endothelial cells + SP + Aprepitant ([4]; Leukemia B): 54 ± 6%
- Endothelial cells co-cultured with tumor cells + SP + Aprepitant ([4]; Leukemia T): 56 ± 6%
- Tumor cells co-cultured with endothelial cells + SP + Aprepitant ([4]; Leukemia T): 56 ± 5%
- Endothelial cells co-cultured with tumor cells + SP + Aprepitant ([4]; Malignant fibrous histiocytoma): 56 ± 6%
- Tumor cells co-cultured with endothelial cells + SP + Aprepitant ([4]; Malignant fibrous histiocytoma): 44 ± 5%
- Endothelial cells co-cultured with tumor cells + SP + Aprepitant ([4]; Melanoma): 56 ± 6%
- Tumor cells co-cultured with endothelial cells + SP + Aprepitant ([4]; Melanoma): 46 ± 5%
- Endothelial cells co-cultured with tumor cells + SP + Aprepitant ([4]; Myeloma): 54 ± 8%
- Tumor cells co-cultured with endothelial cells + SP + Aprepitant ([4]; Myeloma): 64 ± 3%
- Endothelial cells co-cultured with tumor cells + SP + Aprepitant ([4]; Neuroblastoma): 49 ± 4%
- Tumor cells co-cultured with endothelial cells + SP + Aprepitant ([4]; Neuroblastoma): 55 ± 6%
- Endothelial cells co-cultured with tumor cells + SP + Aprepitant ([4]; Non-Hodgkin's Lymphoma B): 67 ± 5%
- Tumor cells co-cultured with endothelial cells + SP + Aprepitant ([4]; Non-Hodgkin's Lymphoma B): 49 ± 6%
- Endothelial cells co-cultured with tumor cells + SP + Aprepitant ([4]; Non-Hodgkin's Lymphoma T): 49 ± 4%
- Tumor cells co-cultured with endothelial cells + SP + Aprepitant ([4]; Non-Hodgkin's Lymphoma T): 83 ± 8%
- Endothelial cells co-cultured with tumor cells + SP + Aprepitant ([4]; Renal carcinoma): 56 ± 2%
- Tumor cells co-cultured with endothelial cells + SP + Aprepitant ([4]; Renal carcinoma): 53 ± 3%
- Endothelial cells co-cultured with tumor cells + SP + Aprepitant ([4]; Sarcoma of Ewing): 45 ± 5%
- Tumor cells co-cultured with endothelial cells + SP + Aprepitant ([4]; Sarcoma of Ewing): 45 ± 7%
- macrophages expressing EGF [5]: 0%
- macrophages expressing MMP-9 [5]: 0%
- macrophages expressing VEGF [5]: 0%
- PHF cells expressing MMP-3 [6]: 0%
- PHF cells expressing MMP-7 [6]: 0%
- PHF cells expressing MMP-9 [6]: 0%
- PHF cells expressing MMP-11 [6]: 0%
- PHF cells expressing MMP-13 [6]: 0%
- PHF cells expressing MMP-14 [6]: 0%
- PHF cells expressing SPARC [6]: 0%
- PHF cells expressing TGF-α [6]: 0%
- PHF cells expressing TGF-β1 [6]: 0%
- PHF cells expressing TGF-β2 [6]: 0%
- PHF cells expressing TGF-β3 [6]: 0%
- PHF cells expressing MMP-3 [7]: 0%
- PHF cells expressing MMP-7 [7]: 0%
- PHF cells expressing MMP-9 [7]: 0%
- PHF cells expressing MMP-11 [7]: 0%
- PHF cells expressing MMP-13 [7]: 0%
- PHF cells expressing MMP-14 [7]: 0%
- PHF cells expressing SPARC [7]: 0%
- PHF cells expressing TGF-α [7]: 0%
- PHF cells expressing TGF-β1 [7]: 0%
- PHF cells expressing TGF-β2 [7]: 0%
- PHF cells expressing TGF-β3 [7]: 0%
- cells expressing MMP-3 [8]: 0%
- cells expressing MMP-7 [8]: 0%
- cells expressing MMP-9 [8]: 0%
- cells expressing MMP-11 [8]: 0%
- cells expressing MMP-13 [8]: 0%
- cells expressing MMP-14 [8]: 0%
- cells expressing SPARC [8]: 0%
- cells expressing TGF-α [8]: 0%
- cells expressing TGF-β1 [8]: 0%
- cells expressing TGF-β2 [8]: 0%
- cells expressing TGF-β3 [8]: 0%

Source: patent US20180071317A1, “USE OF AGENTS THAT ALTER THE PERITUMORAL ENVIRONMENT FOR THE TREATMENT OF CANCER” (SERVICIO ANDALUZ DE SALUD, priority 2011, published 2018)
